We go through eight molecules from ChEMBL document CHEMBL1134637, “Fluorescent tricyclic analogues of acyclovir and ganciclovir. A structure-antiviral activity study” (2001).

Assay type in all cases: functional
For test [1], the system named is Human alphaherpesvirus 2. The test can be described thus: Minimal inhibitory concentration to reduce virus-induced cytopathicity against 196 strain of human Herpes Simplex Virus-2. (Protection from cytopathic effect is a common read-out in antiviral testing.)
Another test deals with Vaccinia virus. The test can be described thus: Minimal inhibitory concentration to reduce virus-induced cytopathicity against VV. The settings on record: Orthopoxvirus vaccinia.
Test [2] deals with Human alphaherpesvirus 1. The test can be described thus: Minimal inhibitory concentration to reduce virus-induced cytopathicity against KOS strain of human Herpes Simplex Virus -1.
For test [3], the system named is Vesicular stomatitis virus. The test can be described thus: Minimal inhibitory concentration to reduce virus-induced cytopathicity against VSV.
Test [4] has as its system Human alphaherpesvirus 1. In words: Minimal inhibitory concentration to reduce virus-induced cytopathicity against TK-/TK+ HSV-1 (VMW 837).
The subject of test [5] is Human alphaherpesvirus 2. In words: Minimal inhibitory concentration to reduce virus-induced cytopathicity against Lyons strain of human Herpes Simplex Virus-2.
Test [6] has as its system Human alphaherpesvirus 1. The test can be described thus: Minimal inhibitory concentration to reduce virus-induced cytopathicity against F strain of human Herpes Simplex Virus-1 (HSV-1). Conditions: Human alphaherpesvirus 1; read-out: MIC.
In test [7] the test system is Human alphaherpesvirus 2. In words: Minimal inhibitory concentration to reduce virus-induced cytopathicity against G strain of human Herpes Simplex Virus-2. The settings on record: Human alphaherpesvirus 2; read-out: MIC.
Test [8] deals with Human alphaherpesvirus 1. The test can be described thus: Minimal inhibitory concentration to reduce virus-induced cytopathicity against McIntyre strain of human Herpes Simplex Virus-1.
Test [9] deals with Human alphaherpesvirus 1. In words: Minimal inhibitory concentration to reduce virus-induced cytopathicity against Thymidine kinase deficient(TK-) HSV-1 (Acyclovir).
Test [10] in a line: Minimal cytotoxic concentration (MCC) to cause a microscopically detectable change in normal cell morphology.
For test [11], the system named is Human alphaherpesvirus 1. The test can be described thus: Minimal inhibitory concentration to reduce virus-induced cytopathicity against TK-/TK+ HSV-1 of VMW 837.
Test [12] has as its system Human alphaherpesvirus 1. The test can be described thus: Minimal inhibitory concentration to reduce virus-induced cytopathicity against Thymidine kinase deficient(TK-) HSV-1 of Acyclovir.

In brackets after ≈: the same amount, converted by molar mass.

With `Nc1nc2c(ncn2COCCO)c(=O)[nH]1` [ACYCLOVIR], the MIC with Human alphaherpesvirus 2 [1] was 0.07 µg/mL (≈ 0.311 µM); against Vaccinia virus, over 80 µg/mL; with Human alphaherpesvirus 1 [2] it was 0.13 µg/mL (≈ 0.577 µM); in [3] it was over 80 µg/mL; against Human alphaherpesvirus 1 [4], 7.1 µg/mL (≈ 31.5 µM); against Human alphaherpesvirus 2 [5] it was 0.28 µg/mL (≈ 1.24 µM). In addition, the MIC in the test on Human alphaherpesvirus 1 [6] was determined as 0.08 µg/mL (≈ 0.355 µM); with Human alphaherpesvirus 2 [7] it was 0.19 µg/mL (≈ 0.844 µM); against Human alphaherpesvirus 1 [8] it was 0.13 µg/mL (≈ 0.577 µM); with Human alphaherpesvirus 1 [9] it was 19 µg/mL (≈ 84.4 µM). The molecule further showed an MCC in test [10] of over 400 µg/mL.
`COc1cccc(-c2cn3c(O)c4ncn(COCCO)c4nc3n2)c1`: the MIC against Human alphaherpesvirus 1 [11] was 9.6 µg/mL (≈ 27 µM); against Human alphaherpesvirus 1 [12], over 80 µg/mL; in the test on Human alphaherpesvirus 2 [1] it was 3.2 µg/mL (≈ 9.01 µM); against Vaccinia virus, over 400 µg/mL; against Human alphaherpesvirus 1 [2], 1.92 µg/mL (≈ 5.4 µM); in test [3], 240 µg/mL (≈ 675 µM). Besides, the MIC is 3.2 µg/mL (≈ 9.01 µM) in the test with Human alphaherpesvirus 2 [5], 1.92 µg/mL (≈ 5.4 µM) in the test on Human alphaherpesvirus 1 [6], 1.92 µg/mL (≈ 5.4 µM) with Human alphaherpesvirus 2 [7] and 0.64 µg/mL (≈ 1.8 µM) in the test with Human alphaherpesvirus 1 [8]. Besides, in test [10], the MCC was over 400 µg/mL.
For `Nc1nc2c(ncn2COC(CO)CO)c(=O)[nH]1` [GANCICLOVIR], the MIC is 0.07 µg/mL (≈ 0.274 µM) in the test on Human alphaherpesvirus 1 [11]; 0.48 µg/mL (≈ 1.88 µM) with Human alphaherpesvirus 1 [12]; 0.02 µg/mL (≈ 0.0784 µM) in the test on Human alphaherpesvirus 2 [1]; over 100 µg/mL with Vaccinia virus; 0.006 µg/mL (≈ 0.0235 µM) in the test with Human alphaherpesvirus 1 [2]; over 100 µg/mL in [3]. For the same molecule, the MIC turned out to be 0.04 µg/mL (≈ 0.157 µM) against Human alphaherpesvirus 2 [5], 0.004 µg/mL (≈ 0.0157 µM) with Human alphaherpesvirus 1 [6], 0.01 µg/mL (≈ 0.0392 µM) in the test with Human alphaherpesvirus 2 [7] and 0.006 µg/mL (≈ 0.0235 µM) with Human alphaherpesvirus 1 [8]. In addition, the MCC in test [10] is over 100 µg/mL.
Take `O=c1[nH]c(=O)n([C@H]2C[C@H](O)[C@@H](CO)O2)cc1/C=C/Br` [BRIVUDINE]: the MIC against Human alphaherpesvirus 1 [11] was over 100 µg/mL; against Human alphaherpesvirus 1 [12] it was 90 µg/mL (≈ 270 µM); against Human alphaherpesvirus 2 [1], over 100 µg/mL; in the test on Vaccinia virus it was 9.2 µg/mL (≈ 27.6 µM); against Human alphaherpesvirus 1 [2] it was 0.02 µg/mL (≈ 0.06 µM); in [3], over 200 µg/mL. In addition, the MIC is over 100 µg/mL in the test with Human alphaherpesvirus 2 [5], 0.02 µg/mL (≈ 0.06 µM) with Human alphaherpesvirus 1 [6], over 100 µg/mL in the test on Human alphaherpesvirus 2 [7] and 0.01 µg/mL (≈ 0.03 µM) against Human alphaherpesvirus 1 [8]. For the same molecule, in test [10], the MCC was over 400 µg/mL.
Take `COc1ccccc1-c1cn2c(O)c3ncn(COCCO)c3nc2n1`: the MIC was 9.6 µg/mL (≈ 27 µM) against Human alphaherpesvirus 1 [11]; over 80 µg/mL in the test with Human alphaherpesvirus 1 [12]; 9.6 µg/mL (≈ 27 µM) against Human alphaherpesvirus 2 [1]; over 80 µg/mL against Vaccinia virus; 1.92 µg/mL (≈ 5.4 µM) in the test with Human alphaherpesvirus 1 [2]; over 80 µg/mL in test [3]. The MIC with Human alphaherpesvirus 2 [5] is 9.6 µg/mL (≈ 27 µM); with Human alphaherpesvirus 1 [6], 1.92 µg/mL (≈ 5.4 µM); in the test on Human alphaherpesvirus 2 [7] it was 1.92 µg/mL (≈ 5.4 µM); in the test with Human alphaherpesvirus 1 [8], 1.92 µg/mL (≈ 5.4 µM). The same molecule had an MCC in test [10] of 400 µg/mL.
On to `OCCOCn1cnc2c(O)n3c(C(c4ccccc4)(c4ccccc4)c4ccccc4)cnc3nc21`, for which the MIC (in the test on Human alphaherpesvirus 1 [11]; with Human alphaherpesvirus 1 [12]; in the test on Human alphaherpesvirus 2 [1]; in the test on Vaccinia virus; in the test on Human alphaherpesvirus 1 [2]; in test [3]) was over 16 µg/mL each time. Further, the MIC in the test on Human alphaherpesvirus 2 [5], in the test with Human alphaherpesvirus 1 [6], in the test with Human alphaherpesvirus 2 [7] and in the test with Human alphaherpesvirus 1 [8] was over 16 µg/mL throughout. Besides, the MCC in test [10] was found to be 80 µg/mL.
Consider `CC(=O)OCCOCn1cnc2c(O)n3cc(-c4ccc5ccccc5c4)nc3nc21`, for which the MIC (against Human alphaherpesvirus 1 [11]; in the test with Human alphaherpesvirus 1 [12]; against Human alphaherpesvirus 2 [1]; with Vaccinia virus; against Human alphaherpesvirus 1 [2]; in [3]) was over 16 µg/mL throughout. The MIC with Human alphaherpesvirus 2 [5], in the test with Human alphaherpesvirus 1 [6], in the test with Human alphaherpesvirus 2 [7] and in the test on Human alphaherpesvirus 1 [8] was over 16 µg/mL each time. In addition, in [10], the MCC is over 80 µg/mL.
For `COc1ccc(OC)c(-c2cn3c(O)c4ncn(COCCO)c4nc3n2)c1`, the MIC is over 16 µg/mL against Human alphaherpesvirus 1 [11]; over 16 µg/mL with Human alphaherpesvirus 1 [12]; over 16 µg/mL against Human alphaherpesvirus 2 [1]; over 16 µg/mL with Vaccinia virus; 9.6 µg/mL (≈ 24.9 µM) in the test with Human alphaherpesvirus 1 [2]; over 16 µg/mL in test [3]. The MIC with Human alphaherpesvirus 2 [5] is over 16 µg/mL; in the test on Human alphaherpesvirus 1 [6], 16 µg/mL (≈ 41.5 µM); in the test on Human alphaherpesvirus 2 [7] it was 9.6 µg/mL (≈ 24.9 µM); with Human alphaherpesvirus 1 [8], 16 µg/mL (≈ 41.5 µM). The same molecule came in with an MCC in test [10] of 80 µg/mL.
